This passage reports IC50 and inhibition results from ChEMBL document CHEMBL4808217, “Design, Synthesis, and Characterization of 4-Aminoquinazolines as Potent Inhibitors of the G Protein-Coupled Receptor Kinase 6 (GRK6) for the Treatment of Multiple Myeloma” (J Med Chem, 2021).

The structures appear in SMILES notation.

In one assay the target is T1, Aurora kinase A (Homo sapiens, UniProt O14965).
T1 sequence (O14965 whole entry): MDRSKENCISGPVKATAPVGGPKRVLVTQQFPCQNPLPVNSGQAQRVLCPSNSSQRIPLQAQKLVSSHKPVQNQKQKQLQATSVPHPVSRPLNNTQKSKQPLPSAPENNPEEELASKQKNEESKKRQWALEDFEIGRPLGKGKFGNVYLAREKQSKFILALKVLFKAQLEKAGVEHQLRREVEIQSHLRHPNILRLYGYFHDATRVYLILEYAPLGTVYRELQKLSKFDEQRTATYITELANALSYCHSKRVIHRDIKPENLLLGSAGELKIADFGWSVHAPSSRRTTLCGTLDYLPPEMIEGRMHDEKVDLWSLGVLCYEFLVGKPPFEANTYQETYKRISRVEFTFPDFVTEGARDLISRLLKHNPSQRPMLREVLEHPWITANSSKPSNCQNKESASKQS
The assay is described as follows: Inhibition of recombinant full length human Aurora A using LRRASLG as substrate incubated for 40 mins in presence of [gamma-33ATP] by radiometric scintillation counting method.

The target in assay [1] is T2, G protein-coupled receptor kinase 6 (Homo sapiens, UniProt P43250). The assay is described as follows: Inhibition of recombinant full-length human GRK6 using casein as substrate measured after 80 mins in presence of [gamma33P]ATP by radiometric scintillation counting method.
Target sequence in this assay (P43250 whole entry): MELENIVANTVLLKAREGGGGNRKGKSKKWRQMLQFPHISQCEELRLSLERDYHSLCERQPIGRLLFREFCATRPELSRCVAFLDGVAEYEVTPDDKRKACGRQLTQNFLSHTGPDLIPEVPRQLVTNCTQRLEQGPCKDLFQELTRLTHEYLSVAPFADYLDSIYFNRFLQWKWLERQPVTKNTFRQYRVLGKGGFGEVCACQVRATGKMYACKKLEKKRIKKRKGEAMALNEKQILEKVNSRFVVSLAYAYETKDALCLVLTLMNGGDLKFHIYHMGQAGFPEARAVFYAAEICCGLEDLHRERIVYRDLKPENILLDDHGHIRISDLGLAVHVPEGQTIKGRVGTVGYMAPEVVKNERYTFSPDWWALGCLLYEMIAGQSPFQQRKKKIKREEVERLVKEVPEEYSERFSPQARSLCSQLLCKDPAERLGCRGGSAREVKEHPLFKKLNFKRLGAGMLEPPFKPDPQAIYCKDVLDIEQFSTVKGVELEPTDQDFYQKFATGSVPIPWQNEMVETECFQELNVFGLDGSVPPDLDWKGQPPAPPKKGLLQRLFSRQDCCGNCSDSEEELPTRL
The target of assay [2] is G protein-coupled receptor kinase 4 (Homo sapiens, UniProt P32298). The assay is described as follows: Inhibition of human GRK4 using casein as substrate in presence of [gamma33P]ATP by radiometric hotspot kinase assay.
Sequence of G protein-coupled receptor kinase 4 (P32298 whole entry): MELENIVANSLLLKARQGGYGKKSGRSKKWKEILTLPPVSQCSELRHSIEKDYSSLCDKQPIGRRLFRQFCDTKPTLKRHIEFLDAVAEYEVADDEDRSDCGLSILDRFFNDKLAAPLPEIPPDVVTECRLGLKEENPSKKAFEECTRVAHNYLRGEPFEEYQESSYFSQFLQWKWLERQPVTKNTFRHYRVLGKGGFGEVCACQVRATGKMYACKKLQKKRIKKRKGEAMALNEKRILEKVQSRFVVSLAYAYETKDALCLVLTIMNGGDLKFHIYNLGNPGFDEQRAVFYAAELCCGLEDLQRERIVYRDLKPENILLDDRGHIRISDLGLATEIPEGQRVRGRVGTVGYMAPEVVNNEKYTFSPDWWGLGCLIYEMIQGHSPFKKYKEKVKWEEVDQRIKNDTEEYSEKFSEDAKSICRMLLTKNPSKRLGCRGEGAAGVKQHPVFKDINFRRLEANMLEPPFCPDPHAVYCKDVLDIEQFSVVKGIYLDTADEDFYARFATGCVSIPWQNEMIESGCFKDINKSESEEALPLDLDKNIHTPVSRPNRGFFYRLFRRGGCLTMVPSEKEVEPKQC
A further assay has as its target T3, Rhodopsin kinase GRK7 (Homo sapiens, UniProt Q8WTQ7).
T3 sequence (Q8WTQ7 whole entry): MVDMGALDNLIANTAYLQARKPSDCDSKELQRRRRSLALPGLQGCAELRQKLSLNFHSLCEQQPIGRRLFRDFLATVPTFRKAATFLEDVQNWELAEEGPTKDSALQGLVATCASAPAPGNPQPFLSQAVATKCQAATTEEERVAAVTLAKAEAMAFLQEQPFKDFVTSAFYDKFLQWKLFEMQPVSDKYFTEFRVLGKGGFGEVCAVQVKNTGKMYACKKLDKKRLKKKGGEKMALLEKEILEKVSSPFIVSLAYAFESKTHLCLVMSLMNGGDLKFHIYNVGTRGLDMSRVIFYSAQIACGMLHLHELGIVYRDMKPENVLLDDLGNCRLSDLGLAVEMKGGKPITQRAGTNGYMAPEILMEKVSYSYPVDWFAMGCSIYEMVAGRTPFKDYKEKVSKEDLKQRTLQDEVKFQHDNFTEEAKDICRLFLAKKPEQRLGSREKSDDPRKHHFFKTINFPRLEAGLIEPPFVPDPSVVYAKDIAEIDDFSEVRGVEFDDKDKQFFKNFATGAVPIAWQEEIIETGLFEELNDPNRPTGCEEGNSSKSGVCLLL
The assay is described as follows: Inhibition of recombinant full length human GRK7 using casein as substrate incubated for 40 mins in presence of [gamma-33ATP] by scintillation counting based radiometry assay.

In assay [3] the target is T2, G protein-coupled receptor kinase 6. The assay is described as follows: Binding affinity to FLAG-tagged GRK6 in human KMS11 cells incubated for […] by ITDR assay. In kind it is cell-based, KMS-11.
Target sequence in this assay (P43250 whole entry): as the sequence (P43250 whole entry) above
Assay [4] has as its target Insulin-like growth factor 1 receptor (Homo sapiens, UniProt P08069). The assay is described as follows: Inhibition of recombinant human IGF-1R (959 to end residues) using KKKSPGEYVNIEF as substrate incubated for 40 mins in presence of [gamma-33ATP] by radiometric scintillation counting method.
In assay [5] the target is T4, Beta-adrenergic receptor kinase 1 (Homo sapiens, UniProt P25098).
T4 sequence (P25098 whole entry): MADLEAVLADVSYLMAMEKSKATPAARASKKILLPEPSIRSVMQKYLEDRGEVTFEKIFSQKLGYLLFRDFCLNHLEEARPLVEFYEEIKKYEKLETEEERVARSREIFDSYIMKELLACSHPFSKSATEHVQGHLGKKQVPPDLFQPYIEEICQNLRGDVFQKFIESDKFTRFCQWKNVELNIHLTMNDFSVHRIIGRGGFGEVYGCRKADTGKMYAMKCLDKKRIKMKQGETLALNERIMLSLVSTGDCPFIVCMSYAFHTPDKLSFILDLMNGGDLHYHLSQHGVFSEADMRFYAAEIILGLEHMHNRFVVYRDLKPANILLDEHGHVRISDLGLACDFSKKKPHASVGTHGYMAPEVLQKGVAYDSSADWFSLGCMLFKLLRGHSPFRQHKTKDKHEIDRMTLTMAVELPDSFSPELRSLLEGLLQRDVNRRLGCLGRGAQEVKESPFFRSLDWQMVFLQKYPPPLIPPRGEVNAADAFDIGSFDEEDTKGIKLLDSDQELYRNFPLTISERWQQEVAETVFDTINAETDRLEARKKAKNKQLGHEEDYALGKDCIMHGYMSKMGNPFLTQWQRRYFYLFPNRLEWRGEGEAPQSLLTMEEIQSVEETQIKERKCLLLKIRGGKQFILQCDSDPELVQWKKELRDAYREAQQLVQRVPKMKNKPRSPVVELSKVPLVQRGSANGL
The assay is described as follows: Inhibition of human GRK2 using casein as substrate in presence of [gamma33P]ATP by radiometric hotspot kinase assay.

In assay [6] the target is T2, G protein-coupled receptor kinase 6. The assay is described as follows: Inhibition of human GRK6 using casein as substrate in presence of [gamma33P]ATP by radiometric hotspot kinase assay.
Target sequence in this assay (P43250 whole entry): as the sequence (P43250 whole entry) above
The target of assay [7] is T5, G protein-coupled receptor kinase 3 (Homo sapiens, UniProt P35626).
T5 sequence (P35626 whole entry): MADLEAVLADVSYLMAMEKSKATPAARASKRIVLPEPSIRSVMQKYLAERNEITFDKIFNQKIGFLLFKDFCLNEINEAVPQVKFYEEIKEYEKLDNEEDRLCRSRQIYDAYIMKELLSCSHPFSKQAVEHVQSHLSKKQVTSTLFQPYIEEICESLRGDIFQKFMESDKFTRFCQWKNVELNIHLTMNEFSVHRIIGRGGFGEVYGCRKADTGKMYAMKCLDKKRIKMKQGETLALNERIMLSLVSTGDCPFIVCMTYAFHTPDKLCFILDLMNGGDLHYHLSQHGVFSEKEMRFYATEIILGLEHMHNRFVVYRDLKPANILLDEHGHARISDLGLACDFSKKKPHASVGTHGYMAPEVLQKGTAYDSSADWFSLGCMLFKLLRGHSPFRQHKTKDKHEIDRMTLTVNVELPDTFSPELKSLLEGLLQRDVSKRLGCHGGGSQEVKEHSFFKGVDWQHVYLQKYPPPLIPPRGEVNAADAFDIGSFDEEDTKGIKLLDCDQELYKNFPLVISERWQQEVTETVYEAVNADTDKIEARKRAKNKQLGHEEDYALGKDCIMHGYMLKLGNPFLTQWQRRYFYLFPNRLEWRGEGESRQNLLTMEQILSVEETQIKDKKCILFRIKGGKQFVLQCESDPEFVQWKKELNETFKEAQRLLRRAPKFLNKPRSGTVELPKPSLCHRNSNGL
The assay is described as follows: Inhibition of human GRK3 using casein as substrate in presence of [gamma33P]ATP by radiometric hotspot kinase assay.

Another assay concerns the target T6, Rhodopsin kinase GRK1 (Homo sapiens, UniProt Q15835).
T6 sequence (Q15835 whole entry): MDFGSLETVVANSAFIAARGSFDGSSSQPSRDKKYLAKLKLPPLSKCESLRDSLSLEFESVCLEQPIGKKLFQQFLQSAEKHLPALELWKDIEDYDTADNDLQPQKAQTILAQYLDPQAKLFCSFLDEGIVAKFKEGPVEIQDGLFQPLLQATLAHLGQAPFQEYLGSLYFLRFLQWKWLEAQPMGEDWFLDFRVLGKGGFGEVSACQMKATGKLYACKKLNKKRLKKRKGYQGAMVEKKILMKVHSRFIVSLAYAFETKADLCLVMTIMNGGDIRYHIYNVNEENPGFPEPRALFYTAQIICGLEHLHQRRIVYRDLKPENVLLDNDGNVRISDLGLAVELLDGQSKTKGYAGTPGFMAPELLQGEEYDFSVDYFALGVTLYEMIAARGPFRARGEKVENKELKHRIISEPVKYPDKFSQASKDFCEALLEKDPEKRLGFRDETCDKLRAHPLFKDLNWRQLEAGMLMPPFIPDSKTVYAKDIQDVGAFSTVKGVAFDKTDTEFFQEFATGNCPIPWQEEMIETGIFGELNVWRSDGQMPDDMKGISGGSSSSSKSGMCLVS
The assay is described as follows: Inhibition of human GRK1 using casein as substrate in presence of [gamma33P]ATP by radiometric hotspot kinase assay.

In assay [8] the target is T2, G protein-coupled receptor kinase 6. The assay is described as follows: Inhibition of recombinant full-length human GRK6 using casein as substrate at 1 uM measured after 80 mins in presence of [gamma33P]ATP by radiometric scintillation counting method relative to control.
Target sequence in this assay (P43250 whole entry, looked up): as the sequence (P43250 whole entry) above

Sequence of Insulin-like growth factor 1 receptor (P08069 31-736 limits assumed): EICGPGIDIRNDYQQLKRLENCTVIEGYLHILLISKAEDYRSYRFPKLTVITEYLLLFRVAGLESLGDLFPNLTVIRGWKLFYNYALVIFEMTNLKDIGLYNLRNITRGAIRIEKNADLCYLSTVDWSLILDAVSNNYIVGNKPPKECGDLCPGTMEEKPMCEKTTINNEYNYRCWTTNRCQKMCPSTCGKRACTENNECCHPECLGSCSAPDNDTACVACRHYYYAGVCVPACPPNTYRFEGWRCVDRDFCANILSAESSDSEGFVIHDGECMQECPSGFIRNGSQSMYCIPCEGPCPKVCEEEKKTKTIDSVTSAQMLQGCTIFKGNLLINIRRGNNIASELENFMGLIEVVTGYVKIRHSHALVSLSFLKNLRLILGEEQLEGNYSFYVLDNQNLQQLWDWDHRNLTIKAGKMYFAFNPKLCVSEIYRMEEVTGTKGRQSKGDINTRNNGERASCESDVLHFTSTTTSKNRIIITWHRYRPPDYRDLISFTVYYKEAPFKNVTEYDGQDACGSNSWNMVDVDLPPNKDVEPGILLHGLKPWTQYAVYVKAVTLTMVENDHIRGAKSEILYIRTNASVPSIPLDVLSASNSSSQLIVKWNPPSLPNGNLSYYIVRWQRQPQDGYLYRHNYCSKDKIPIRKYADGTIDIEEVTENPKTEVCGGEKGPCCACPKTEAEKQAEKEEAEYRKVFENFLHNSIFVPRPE
Sequence of Insulin-like growth factor 1 receptor (P08069 741-1367 limits assumed): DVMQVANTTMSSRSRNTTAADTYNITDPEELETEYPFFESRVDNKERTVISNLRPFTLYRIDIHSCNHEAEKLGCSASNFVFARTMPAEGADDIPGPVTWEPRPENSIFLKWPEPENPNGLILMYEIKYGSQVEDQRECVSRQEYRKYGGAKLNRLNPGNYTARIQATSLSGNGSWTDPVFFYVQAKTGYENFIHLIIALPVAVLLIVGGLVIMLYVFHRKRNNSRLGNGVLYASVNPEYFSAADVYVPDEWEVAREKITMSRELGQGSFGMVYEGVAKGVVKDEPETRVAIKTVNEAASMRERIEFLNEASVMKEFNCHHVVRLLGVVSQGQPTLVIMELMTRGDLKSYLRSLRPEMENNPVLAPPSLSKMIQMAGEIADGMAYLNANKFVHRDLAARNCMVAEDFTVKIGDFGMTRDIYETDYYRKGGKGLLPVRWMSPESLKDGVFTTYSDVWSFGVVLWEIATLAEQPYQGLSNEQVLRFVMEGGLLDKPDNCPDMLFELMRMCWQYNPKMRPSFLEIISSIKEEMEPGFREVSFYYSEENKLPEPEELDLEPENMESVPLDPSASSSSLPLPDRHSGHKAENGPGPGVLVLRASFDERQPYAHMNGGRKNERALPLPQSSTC

As usually defined, the IC50 is the concentration at which inhibition is half-maximal. As for `CCc1cc(Nc2nc(NCc3ccc(F)cn3)nc3cccc(OC)c23)n[nH]1`, the IC50 at Aurora kinase A is 4600 nM; in assay [1] it was 18 nM; in assay [2] it was 190 nM; at Rhodopsin kinase GRK7, 36 nM; in assay [3], 10 µM; in assay [4], more than 10 µM. For the same compound, the IC50 in assay [5] was more than 10 µM; in assay [6] it was 33 nM; in assay [7] it was more than 10 µM; at Rhodopsin kinase GRK1, 450 nM.
For orientation: inhibition means the share of the control response that was lost under treatment. As to `Cc1cc(Nc2nc(N[C@@H](C)c3ccc(F)cc3)c(C#N)cc2F)n[nH]1`, the inhibition in assay [8] was found to be 79%.
Consider `N#CCc1ccc(Nc2nc(Nc3cc(C4CCC4)[nH]n3)c3ccccc3n2)cc1`, for which the inhibition in assay [8] came out at 95%.
For the compound `CCc1cc(Nc2nc(N[C@@H](C)c3ccc(F)cn3)nc3cccc(OC)c23)n[nH]1`, the 50% inhibitory concentration (IC50) was 860 nM on Aurora kinase A; 7.2 nM in [1]; 97 nM in assay [2]; 15 nM on Rhodopsin kinase GRK7; 2 µM in assay [3]; more than 10 µM in assay [5]. In addition, the results for the IC50 (in assay [6]; in assay [7]; at Rhodopsin kinase GRK1) were 18 nM, more than 10 µM and 190 nM, respectively.
